Source: ChEMBL document CHEMBL4673230, “Total Synthesis of Natural Lembehyne C and Investigation of Its Cytotoxic Properties” (J Nat Prod, 2020)
Activity calls are given as the source filed them. The rule behind the calls is not given here.

What was measured:
[1] = test system: Jurkat; test: Induction of apoptosis in human Jurkat cells assessed as late apoptotic cells at 100 nM after 24 hrs by Annexin V/7-AAD staining.based flow cytometric analysis relative to control; format: functional
[2] = test system: Jurkat; test: Induction of mitochondrial membrane potential loss in human Jurkat cells assessed as early apoptotic cells at 400 nM after 4 hrs by MitoSense Red/7-AAD. flow cytometric analysis relative to control; format: functional
[3] = test system: Jurkat; test: Induction of cell cycle arrest in human Jurkat cells assessed as accumulation at G2/G1 phase at 400 nM after 24 hrs by Guava Cell Cycle reagent based flow cytometric analysis relative to control; format: functional
[4] = test system: Jurkat; test: Induction of mitochondrial membrane potential loss in human Jurkat cells assessed as late apoptotic cells at 400 nM after 4 hrs by MitoSense Red/7-AAD. flow cytometric analysis relative to control; format: functional
[5] = test system: Jurkat; test: Induction of ROS generation in human Jurkat cells assessed as mitochondria damaged cells at 200 nM after 4 hrs by MitoSox Red/annexin V-CF488A staining based flow cytometric analysis (reference value: 0%); format: functional
[6] = test system: Jurkat; test: Induction of cell cycle arrest in human Jurkat cells assessed as accumulation at G2/G1 phase at 50 nM after 24 hrs by Guava Cell Cycle reagent based flow cytometric analysis relative to control; format: functional
[7] = test system: Jurkat; test: Induction of apoptosis in human Jurkat cells assessed as late apoptotic cells at 50 nM after 24 hrs by Annexin V/7-AAD staining.based flow cytometric analysis relative to control; format: functional
[8] = test system: Jurkat; test: Induction of cell cycle arrest in human Jurkat cells assessed as accumulation at sub-G1 phase at 200 nM after 24 hrs by Guava Cell Cycle reagent based flow cytometric analysis relative to control; format: functional
[9] = test system: Jurkat; test: Induction of DNA damage in human Jurkat cells assessed as increase in H2Ax phosphorylation at 0.4 uM after 2 hrs by Alexa Fluor555 staining based flow cytometric analysis; format: functional, cell-based
[10] = test system: Jurkat; test: Induction of cell cycle arrest in human Jurkat cells assessed as accumulation at G1 phase at 200 nM after 24 hrs by Guava Cell Cycle reagent based flow cytometric analysis relative to control; format: functional
[11] = test system: Jurkat; test: Induction of cell cycle arrest in human Jurkat cells assessed as accumulation at G1 phase at 400 nM after 24 hrs by Guava Cell Cycle reagent based flow cytometric analysis relative to control; format: functional
[12] = test system: Jurkat; test: Induction of cell cycle arrest in human Jurkat cells assessed as accumulation at G2/G1 phase at 100 nM after 24 hrs by Guava Cell Cycle reagent based flow cytometric analysis relative to control; format: functional
[13] = test system: Jurkat; test: Induction of cell cycle arrest in human Jurkat cells assessed as accumulation at G1 phase at 100 nM after 24 hrs by Guava Cell Cycle reagent based flow cytometric analysis relative to control; format: functional
[14] = test system: Jurkat; test: Induction of ROS generation in human Jurkat cells assessed as living undamaged cells at 200 nM after 2 hrs by MitoSox Red/annexin V-CF488A staining based flow cytometric analysis (reference value: 95.44%); format: functional
[15] = test system: Jurkat; test: Induction of apoptosis in human Jurkat cells assessed as late apoptotic cells at 400 nM after 24 hrs by Annexin V/7-AAD staining.based flow cytometric analysis relative to control; format: functional
[16] = test system: Jurkat; test: Induction of apoptosis in human Jurkat cells assessed as necrotic cells at 400 nM after 24 hrs by Annexin V/7-AAD staining.based flow cytometric analysis relative to control; format: functional
[17] = test system: Jurkat; test: Induction of cell cycle arrest in human Jurkat cells assessed as accumulation at super-G2 phase at 400 nM after 24 hrs by Guava Cell Cycle reagent based flow cytometric analysis relative to control; format: functional
[18] = test system: Jurkat; test: Induction of cell cycle arrest in human Jurkat cells assessed as accumulation at G2 phase at 50 nM after 24 hrs by Guava Cell Cycle reagent based flow cytometric analysis relative to control; format: functional
[19] = test system: Jurkat; test: Induction of cell cycle arrest in human Jurkat cells assessed as accumulation at S phase at 50 nM after 24 hrs by Guava Cell Cycle reagent based flow cytometric analysis relative to control; format: functional
[20] = test system: Jurkat; test: Cytotoxicity against human Jurkat cells assessed as reduction in cell viability by 7-AAD staining based flow cytometric analysis; format: functional
[21] = Effect on total NFKappaB level in human jurkat cells at 400 nM by magnetic bead based immunoassay; format: cell-based; settings: 0.4 µM
[22] = test system: Jurkat; test: Induction of cell cycle arrest in human Jurkat cells assessed as accumulation at super-G2 phase at 200 nM after 24 hrs by Guava Cell Cycle reagent based flow cytometric analysis relative to control; format: functional
[23] = test system: Jurkat; test: Induction of apoptosis in human Jurkat cells assessed as necrotic cells at 200 nM after 24 hrs by Annexin V/7-AAD staining.based flow cytometric analysis relative to control; format: functional
[24] = test system: Jurkat; test: Induction of cell cycle arrest in human Jurkat cells assessed as accumulation at sub-G1 phase at 50 nM after 24 hrs by Guava Cell Cycle reagent based flow cytometric analysis relative to control; format: functional
[25] = test system: Jurkat; test: Induction of cell cycle arrest in human Jurkat cells assessed as accumulation at super-G2 phase at 50 nM after 24 hrs by Guava Cell Cycle reagent based flow cytometric analysis relative to control; format: functional
[26] = test system: Jurkat; test: Induction of cell cycle arrest in human Jurkat cells assessed as accumulation at sub-G1 phase at 400 nM after 24 hrs by Guava Cell Cycle reagent based flow cytometric analysis relative to control; format: functional
[27] = test system: Jurkat; test: Induction of ROS generation in human Jurkat cells assessed as apoptotic cells with clear mitochondrial damages at 200 nM after 24 hrs by MitoSox Red/annexin V-CF488A staining based flow cytometric analysis (reference value: 0.39%); format: functional
[28] = test system: Jurkat; test: Induction of mitochondrial membrane potential loss in human Jurkat cells assessed as live cells at 400 nM after 4 hrs by MitoSense Red/7-AAD. flow cytometric analysis relative to control; format: functional
[29] = test system: Jurkat; test: Induction of cell cycle arrest in human Jurkat cells assessed as accumulation at S phase at 100 nM after 24 hrs by Guava Cell Cycle reagent based flow cytometric analysis relative to control; format: functional
[30] = test system: Jurkat; test: Induction of ROS generation in human Jurkat cells assessed as mitochondria damaged cells at 200 nM after 24 hrs by MitoSox Red/annexin V-CF488A staining based flow cytometric analysis (reference value: 0%); format: functional
[31] = Effect on total STAT3 level in human jurkat cells at 400 nM by magnetic bead based immunoassay; format: cell-based; settings: 0.4 µM

## C#C[C@H](O)CCCCCCCCC/C=C\CC/C=C\CC/C=C\CCCCCCCCCCCCCCCC
[1]
  Activity: 39.78%
[2]
  Activity: 3.32%
[3]
  Activity: 1.93%
[4]
  Activity: 2.87%
[5]
  Activity: 0.16%
[6]
  Activity: 1.91%
[7]
  Activity: 23.53%
[8]
  Activity: 18.01%
[9]
  Activity: inactive
[10]
  Activity: 33.86%
[11]
  Activity: 30.24%
[12]
  Activity: 1.94%
[13]
  Activity: 34.96%
[14]
  Activity: 70.77%
[15]
  Activity: 50.24%
[16]
  Activity: 1.01%
[17]
  Activity: 1.85%
[18]
  Activity: 5.09%
[19]
  Activity: 27.85%
[20]
  IC50: 161 nM
[21]
  Activity: Toxic
[22]
  Activity: 0.91%
[23]
  Activity: 7.51%
[24]
  Activity: 10.76%
[25]
  Activity: 1.35%
[26]
  Activity: 16.56%
[27]
  Activity: 20.58%
[28]
  Activity: 63.45%
[29]
  Activity: 30.33%
[30]
  Activity: 0%
[31]
  Activity: Toxic
